Results as given in PubChem BioAssay AID1199 (EPA DSSTox, 2008).
Activity calls are given as the source filed them.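 Rule for the calls: active = a tumour-causing dose and a tumour site recorded for mice in at least one sex group; inconclusive = only government mouse studies exist and were judged inadequate; inactive = mouse studies exist but none gave tumours.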

These compounds were tested on mouse carcinogenicity bioassay, TD50 from CPDB (assay: DSSTox (CPDBAS) Carcinogenic Potency Database Summary Mouse Bioassay Results). Conditions: TD50_Mouse_Note: TD50 is harmonic mean of more than one positive test; TargetSites_Mouse_Female: clitoral gland; lung; stomach.
Procedure, shortened: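 Chronic long-term mouse cancer bioassays from literature and NCI/NTP, compiled per sex. TD50 is the standardized carcinogenic potency, using the most positive experiment per sex-species; target sites follow author opinion.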

Question: With C/C=N/N(C)C=O as the compound, how does the Potency read?
Answer: The Potency was 0.0251 mmol/kg/day.

Same assay, conditions: TD50_Mouse_Note: TD50 is harmonic mean of more than one positive test; TargetSites_Mouse_Female: ear Zymbals gland; harderian gland; liver; lung; mammary gland; peritoneal cavity; stomach; subcutaneous tissue; vascula

Question: Which Potency does the source give for C=CC(=C)Cl here?
Answer: The Potency was 0.0923 mmol/kg/day.

Same assay, conditions: TD50_Mouse_Note: TD50 is harmonic mean of more than one positive test; TargetSites_Mouse_Female: esophagus; liver; lung; nasal cavity; oral cavity; stomach

Question: For O=NN1CCCCCC1, which Potency is on record?
Answer: The Potency was 0.00412 mmol/kg/day.

Same assay, conditions: TD50_Mouse_Note: TD50 is harmonic mean of more than one positive test; TargetSites_Mouse_Female: harderian gland; hematopoietic system; lung; mammary gland; uterus

Question: How did the Potency turn out when C1CO1 was run?
Answer: Its Potency is 1.45 mmol/kg/day.

Same assay, conditions: TD50_Mouse_Note: TD50 is harmonic mean of more than one positive test; TargetSites_Mouse_Female: harderian gland; liver; lung

Question: C[N+](=O)[O-] was tested. Which Potency did it give?
Answer: Its Potency is 7.68 mmol/kg/day.

Same assay, conditions: TD50_Mouse_Note: TD50 is harmonic mean of more than one positive test; TargetSites_Mouse_Female: hematopoietic system; lung

Question: With NNC(=O)c1ccccc1 as the compound, how does the Potency read?
Answer: The Potency was 0.0704 mmol/kg/day.

Same assay, conditions: TD50_Mouse_Note: TD50 is harmonic mean of more than one positive test; TargetSites_Mouse_Female: hematopoietic system; ovary

Question: How did the Potency turn out when O=C1OC(c2ccc(O)cc2)(c2ccc(O)cc2)c2ccccc21 was run?
Answer: The Potency was 3.68 mmol/kg/day.

Same assay, conditions: TD50_Mouse_Note: TD50 is harmonic mean of more than one positive test; TargetSites_Mouse_Female: hematopoietic system; stomach

Question: For O=P(OCCCl)(OCCCl)OCCCl, which Potency is on record?
Answer: The Potency was 3.39 mmol/kg/day.

Same assay, conditions: TD50_Mouse_Note: TD50 is harmonic mean of more than one positive test; TargetSites_Mouse_Female: large intestine; liver; vascular system

Question: How did the Potency turn out when Cc1ccccc1[N+](=O)[O-] was run?
Answer: Its Potency is 0.933 mmol/kg/day.

Same assay, conditions: TD50_Mouse_Note: TD50 is harmonic mean of more than one positive test; TargetSites_Mouse_Female: liver

Question: With Clc1c(Cl)c(Cl)c(Cl)c(Cl)c1Cl as the compound, how does the Potency read?
Answer: Its Potency is 0.229 mmol/kg/day.

Question: Clc1cc2c(c(Cl)c1Cl)Oc1c(cc(Cl)c(Cl)c1Cl)O2 was tested. Which Potency did it give?
Answer: Its Potency is 3.66e-06 mmol/kg/day.

Question: How did the Potency turn out when Nc1ccccc1C(=O)OC/C=C/c1ccccc1 was run?
Answer: The Potency was 10.2 mmol/kg/day.

Question: How did the Potency turn out when CC(C)(CCCOc1ccc(OCCCC(C)(C)C(=O)O)c(-c2ccccc2)c1)C(=O)O was run?
Answer: Its Potency is 0.125 mmol/kg/day.

Question: Which Potency does the source give for O=C1C2(Cl)C3(Cl)C4(Cl)C(Cl)(Cl)C5(Cl)C3(Cl)C1(Cl)C5(Cl)C24Cl (stereo not given) here?
Answer: Its Potency is 0.002 mmol/kg/day.

Question: Nc1nc(N)c2nc(-c3ccccc3)c(N)nc2n1 was tested. Which Potency did it give?
Answer: Its Potency is 0.238 mmol/kg/day.

Question: With Nc1cc(Cl)c(N)c(Cl)c1 as the compound, how does the Potency read?
Answer: The Potency was 4.54 mmol/kg/day.

Question: With COc1ccccc1[N+](=O)[O-] as the compound, how does the Potency read?
Answer: Its Potency is 1.16 mmol/kg/day.

Same assay, conditions: TD50_Mouse_Note: TD50 is harmonic mean of more than one positive test; TargetSites_Mouse_Female: liver; lung

Question: For ClCCl, which Potency is on record?
Answer: The Potency was 13 mmol/kg/day.

Question: CCCCC/C=N/N(C)C=O was tested. Which Potency did it give?
Answer: The Potency was 0.0149 mmol/kg/day.

Same assay, conditions: TD50_Mouse_Note: TD50 is harmonic mean of more than one positive test; TargetSites_Mouse_Female: lung

Question: C=CCNNCC=C was tested. Which Potency did it give?
Answer: The Potency was 0.183 mmol/kg/day.

Question: How did the Potency turn out when CC(=O)NN was run?
Answer: Its Potency is 0.133 mmol/kg/day.

Question: For CC(CCl)OC(C)CCl (stereo not given), which Potency is on record?
Answer: The Potency was 1.12 mmol/kg/day.

Same assay, conditions: TD50_Mouse_Note: TD50 is harmonic mean of more than one positive test; TargetSites_Mouse_Female: lung; mammary gland; uterus

Question: CN(N=O)c1ncnc2c1ncn2[C@@H]1O[C@H](CO)[C@@H](O)[C@H]1O was tested. Which Potency did it give?
Answer: Its Potency is 0.059 mmol/kg/day.

Same assay, conditions: TD50_Mouse_Note: TD50 is harmonic mean of more than one positive test; TargetSites_Mouse_Female: mammary gland; ovary; pituitary gland; thyroid gland; uterus

Question: CC/C(=C(/CC)c1ccc(O)cc1)c1ccc(O)cc1 was tested. Which Potency did it give?
Answer: Its Potency is 0.000146 mmol/kg/day.

Same assay, conditions: TD50_Mouse_Note: TD50 is harmonic mean of more than one positive test; TargetSites_Mouse_Female: no positive results

Question: Which Potency does the source give for OC(O)C(Cl)(Cl)Cl here?
Answer: Its Potency is 0.604 mmol/kg/day.

Same assay, conditions: TD50_Mouse_Note: TD50 is harmonic mean of more than one positive test; TargetSites_Mouse_Female: stomach

Question: For c1cc(OCC2CO2)cc(OCC2CO2)c1 (stereo not given), which Potency is on record?
Answer: Its Potency is 0.109 mmol/kg/day.

Question: How did the Potency turn out when COP(=O)(OC)OC=C(Cl)Cl was run?
Answer: The Potency was 0.319 mmol/kg/day.

Same assay, conditions: TD50_Mouse_Note: TD50 is harmonic mean of more than one positive test; TargetSites_Mouse_Female: vascular system

Question: Which Potency does the source give for O=[N+]([O-])c1ccc(Cl)cc1 here?
Answer: Its Potency is 3 mmol/kg/day.

Same assay, conditions: TD50_Mouse_Note: no positive results

Question: With C[N+](C)(C)CCO as the compound, how does the outcome read?
Answer: The outcome was “inactive; no positive results”.

Same assay, conditions: TD50_Mouse_Note: no positive results are statistically significant; TargetSites_Mouse_Female: no positive results

Question: For Cc1cccc(N)c1, which Potency is on record?
Answer: The Potency was 10 mmol/kg/day.

Same assay, conditions: TD50_Mouse_Note: no positive results; TargetSites_Mouse_Female: no positive results

Question: For COC(C(=O)O)c1ccccc1 (stereo not given), which outcome is on record?
Answer: Its outcome is “inactive; no positive results”.

Question: Which outcome does the source give for NC(=O)c1cccnc1 here?
Answer: Its outcome is “inactive; no positive results”.

Question: With Oc1ccc2ccccc2c1N=Nc1ccccc1 as the compound, how does the outcome read?
Answer: Its outcome is “inactive; no positive results”.

Question: Which outcome does the source give for O=[N+]([O-])c1cc(N(CCO)CCO)ccc1NCCO here?
Answer: Its outcome is “inactive; no positive results”.

Question: Which outcome does the source give for Cc1cc(N=Nc2c(O)ccc3ccccc23)c(S(=O)(=O)O)cc1Cl here?
Answer: The outcome was “inactive; no positive results”.

Question: For CCCCNC(=O)NS(=O)(=O)c1ccc(C)cc1, which outcome is on record?
Answer: The outcome was “inactive; no positive results”.

Question: CC(O)CCl (stereo not given) was tested. Which outcome did it give?
Answer: The outcome was “inactive; no positive results”.

Question: Which outcome does the source give for CCN(CC)CCOc1ccc(/C(=C(\Cl)c2ccccc2)c2ccccc2)cc1 here?
Answer: The outcome was “inactive”.

Question: Which outcome does the source give for CC(C)OC(=O)Nc1ccccc1 here?
Answer: Its outcome is “inactive; no positive results”.

Question: For Nc1cc(Cl)c(-c2cc(Cl)c(N)cc2Cl)cc1Cl, which outcome is on record?
Answer: The outcome was “inactive”.

Question: Oc1ccc(OCc2ccccc2)cc1 was tested. Which outcome did it give?
Answer: The outcome was “inactive; no positive results”.

Question: O=[N+]([O-])c1ccc(O)c([N+](=O)[O-])c1 was tested. Which outcome did it give?
Answer: Its outcome is “inactive”.

Question: With CN(C)c1ccc(N=NS(=O)(=O)O)cc1 as the compound, how does the outcome read?
Answer: The outcome was “inactive; no positive results”.

Question: How did the outcome turn out when Cc1ccc([N+](=O)[O-])cc1 was run?
Answer: The outcome was “inactive; no positive results”.

Question: How did the outcome turn out when CN1CCC[C@H]1c1cccnc1 was run?
Answer: The outcome was “inactive; no positive results”.

Question: For CC(O)c1ccccc1 (stereo not given), which outcome is on record?
Answer: Its outcome is “inactive; no positive results”.

Question: With O=C(O)c1ccccc1-c1c2cc(I)c(=O)c(I)c-2oc2c(I)c(O)c(I)cc12 as the compound, how does the outcome read?
Answer: The outcome was “inactive; no positive results”.

Question: CCCCCc1cc(O)c2c(c1)OC(C)(C)[C@@H]1CCC(C)=C[C@@H]21 was tested. Which outcome did it give?
Answer: The outcome was “inactive; no positive results”.

Question: With S=C([S-])NCCNC(=S)[S-].[Mn+2] as the compound, how does the outcome read?
Answer: Its outcome is “inactive; no positive results”.

Question: Which outcome does the source give for Cn1c(=O)c2c(ncn2C)n(C)c1=O here?
Answer: The outcome was “inactive; no positive results”.
